The record followed here is US8802678B2, “Carbonylated (aza) cyclohexanes as dopamine D3 receptor ligands” (Bioprojet, priority 2006, dated 2014).

Molecules are shown by their SMILES.

In turn, `COCC(=O)N[C@H]1CC[C@H](CCN2CCN(c3cc(C#N)cc(C(F)(F)F)c3)CC2)CC1` [Example 139, N-(4-{2-[4-(3-Cyano-5-trifluoromethylphenyl)piperazin-1-yl]ethyl}cyclohexyl)-2-methoxyacetamide] showed a melting point of 140 °C.
In the case of `CSCC(=O)N[C@H]1CC[C@H](CCN2CCN(c3cccc(C(F)(F)F)c3)CC2)CC1` [Example 80, 2-Methylsulfanyl-N-(4-{2-[4-(3-trifluoromethylphenyl)piperazin-1-yl]ethyl}cyclohexyl)acetamide] it was 128 °C.
In the case of `O=C(N[C@H]1CC[C@H](CCN2CCN(c3cccc(C(F)(F)F)c3)CC2)CC1)C1=CCCCC1` [Example 53, Cyclohex-1-enecarboxylic acid (4-{2-[4-(3-trifluoromethylphenyl)-piperazin-1-yl]ethyl}cyclohexyl)-amide] it was 175 °C; in that of `CC(=O)CN1CCC(CCN2CCN(c3cccc(OC(F)(F)F)c3)CC2)CC1.Cl.Cl`, 275 °C.
In the case of `N#CCC(=O)N[C@H]1CC[C@H](CCN2CCN(c3ccc(C#N)cc3)CC2)CC1` [Example 370, 2-Cyano-N-(4-{2-[4-(4-cyanophenyl)piperazin-1-yl]ethyl}cyclohexyl)acetamide] it was 228 °C; in that of `COc1ccc(C)c(N2CCN(CC[C@H]3CC[C@H](NC(=O)CC#N)CC3)CC2)c1` [Example 198, 2-Cyano-N-(4-{2-[4-(5-methoxy-2-methylphenyl)piperazin-1-yl]ethyl}cyclohexyl)acetamide], 178 to 180 °C; in that of `COc1cccc(N2CCN(CC[C@H]3CC[C@H](NC(=O)CCC#N)CC3)CC2)c1` [Example 418, 3-Cyano-N-(4-{2-[4-(3-methoxyphenyl)piperazin-1-yl]ethyl}cyclohexyl)propanamide], 140 °C.
`O=C(N[C@H]1CC[C@H](CCN2CCN(c3ccc(F)cc3F)CC2)CC1)C1=CCCC1` [Example 384, Cyclopent-1-enecarboxylic acid (4-{2-[4-(2,4-difluorphenyl)-piperazin-1-yl]ethyl}cyclohexyl) amide] came in with a melting point of 205 °C.
Regarding `Cl.O=C(CCC(F)(F)F)N1CCC(CCN2CCN(c3cccc4c3CCC4)CC2)CC1`, the melting point stood at 219 °C.
As for `N#CCCCC(=O)N[C@H]1CC[C@H](CCN2CCN(c3cccc(F)c3C#N)CC2)CC1` [Example 522, 4-Cyano-N-(4-{2-[4-(2-cyano-3-fluorophenyl)piperazin-1-yl]ethyl}cyclohexyl)butanamide], the figure is 175 °C; as for `CC(=O)CN1CCC(CCN2CCN(c3ccc(F)c(F)c3F)CC2)CC1` [Example 656], 88 °C.
As for `C[S+]([O-])CC(=O)N[C@H]1CC[C@H](CCN2CCN(c3cccc(C(F)(F)F)c3)CC2)CC1` (stereo partly drawn) [Example 334, 2-Methanesulfinyl-N-(4-{2-[4-(3-trifluoromethylphenyl)piperazin-1-yl]ethyl}cyclohexyl)acetamide], the figure is 153 °C.
In the case of `CC(=O)CN1CCC(CCN2CCN(c3cccc(S(C)(=O)=O)c3)CC2)CC1.Cl.Cl` it was 260 °C.
With `N#CCCC(=O)N[C@H]1CC[C@H](CCN2CCN(c3ccc(F)cc3F)CC2)CC1` [Example 403, 3-Cyano-N-(4-{2-[4-(2,4-difluorophenyl)piperazin-1-yl]ethyl}cyclohexyl)propanamide], the melting point was 165 °C.
As for `CC(=O)CN1CCC(CCN2CCN(c3cccc(Cc4ccccc4)c3)CC2)CC1.Cl.Cl`, the figure is 253 °C; as for `CNC(=O)C=C1CCC(CCN2CCN(c3ccccc3F)CC2)CC1` (stereo not drawn) [Example 299, 2-(4-{2-[4-(2-Fluorophenyl)piperazin-1-yl]ethyl}cyclohexylidene)-N-methylacetamide], 135 °C; as for `O=C(N[C@H]1CC[C@H](CCN2CCN(c3cc(F)c(F)c(F)c3)CC2)CC1)C1=CCCC1` [Example 463, Cyclopent-1-enecarboxylic acid (4-{2-[4-(3,4,5-trifluorophenyl)piperazin-1-yl]ethyl}cyclohexyl) amide], 208 °C.
In the case of `CC(=O)CN1CCC(CCN2CCN(c3ccccc3CC(C)C)CC2)CC1.Cl.Cl` it was 285 °C; in that of `O=C(N[C@H]1CC[C@H](CCN2CCN(c3ccccc3F)CC2)CC1)C1CC=CC1` [Example 70, Cyclopent-3-enecarboxylic acid (4-{2-[4-(2-fluorophenyl)-piperazin-1-yl]ethyl}-cyclohexyl)amide trans/cis 95/5], 204 °C.
As for `CCN(CC)CCC(=O)N[C@H]1CC[C@H](CCN2CCN(c3cccc(C(F)(F)F)c3)CC2)CC1` [Example 167, 3-Diethylamino-N-(4-{2-[4-(3-trifluoromethylphenyl)piperazin-1-yl]ethyl}cyclohexyl)propanamide trans/cis 85/15], the figure is 77 °C.
`CCc1cccc(C2=CCN(CC[C@H]3CC[C@H](NC(=O)CC#N)CC3)CC2)c1` displayed a melting point of 158 °C.
Take `CC(=O)CN1CCC(CCN2CCN(c3ccc(C)cc3)CC2)CC1` [Example 310, 1-{4-[2-(4-p-Tolylpiperazin-1-yl)ethyl]piperidin-1-yl}propan-2-one]: the melting point worked out at 92 °C.
As for `CC(=O)CN1CCC(CCN2CCN(c3ccc(C)c(C)c3)CC2)CC1.Cl.Cl`, the figure is 275 °C; as for `NC(=O)CC(=O)N[C@H]1CC[C@H](CCN2CCN(c3cc(C(F)(F)F)cc(C(F)(F)F)c3)CC2)CC1` [Example 738, N-(4-{2-[4-(3,5-Bistrifluoro-methylphenyl)piperazin-1-yl]ethyl}cyclohexyl)malonamide], 165 °C.
As to `O=C(COc1ccc(F)cc1)N[C@H]1CC[C@H](CCN2CCN(c3ccc(F)cc3F)CC2)CC1` [Example 385, N-(4-{2-[4-(2,4-Difluorophenyl)piperazin-1-yl]ethyl}cyclohexyl)-2-(4-fluorophenoxy)acetamide], the melting point turned out to be 162 °C.
In the case of `COc1ccc(Cl)c(N2CCN(CC[C@H]3CC[C@H](NC(=O)CC#N)CC3)CC2)c1` [Example 193, N-(4-{2-[4-(2-Chloro-5-methoxyphenyl)piperazin-1-yl]ethyl}cyclohexyl)-2-cyanoacetamide] it was 165 °C.
In the case of `COCCCC(=O)N[C@H]1CC[C@H](CCN2CCN(c3ccc(C)c(C)c3)CC2)CC1` [Example 506, N-(4-{2-[4-(3,4-Dimethylphenyl)piperazin-1-yl]ethyl}cyclohexyl)-4-methoxybutanamide] it was 161 °C; in that of `COc1cccc(N2CCN(CC[C@H]3CC[C@H](NC(=O)C4=CCCC4)CC3)CC2)c1` [Example 417, Cyclopent-1-enecarboxylic acid (4-{2-[4-(3-methoxyphenyl)-piperazin-1-yl]ethyl}cyclohexyl) amide], 160 °C.
As for `O=C(COc1ccccc1)N[C@H]1CC[C@H](CCN2CCN(c3ccccc3F)CC2)CC1` [Example 88, N-(4-{2-[4-(2-Fluorophenyl)-piperazin-1-yl]ethyl}cyclohexyl)-2-phenoxyacetamide], the figure is 172 °C; as for `COCCCC(=O)N[C@H]1CC[C@H](CCN2CCN(c3cc(F)c(F)c(F)c3F)CC2)CC1` [Example 93, 4-Methoxy-N-(4-{2-[4-(2,3,4,5-tetrafluorophenyl)piperazin-1-yl]ethyl}cyclohexyl)butyramide], 201 °C.

As usually defined, the melting point is the temperature of the solid-liquid transition.
